# Data reported in patent US9267129B2, “Compositions and methods for conferring herbicide resistance” (BEN-GURION UNIVERSITY OF THE NEGEV RESEARCH AND DEVELOPMENT …, priority 2011, dated 2016).
# System: E. coli BUM1 transformed with the wild type PiAHAS genes
# Experiment: Growth on M9 plates with SMM, bacteria transformed with wild type PiAHAS genes
# Type: cell-based, Escherichia coli
# Conditions: 50 μM SMM, 48 hrs, 37° C.
# Experimental: This strain also requires proline and thiamin, regardless of AHAS expression. Transformation of BUM1 cells was achieved using a standard heat shock protocol. BUM1 cells were grown in LB or in M9 minimal medium (7 mg/ml Na2HPO4; 3 mg/ml KH2PO4; 0.5 mg/ml NaCl; 1 mg/ml NH4Cl; 0.12 mg/ml MgSO4; 0.35 mg/ml thiamin HCl; 2 mg/ml glucose) supplemented with 200 μg/ml proline. Where appropriate, the M9 medium was supplemented with the BCAAs valine, leucine, and isoleucine (150 μg/ml of each) or with 50 μM SMM. BUM1 transformants were propagated and kept on LB medium supplemented with 100 μg/ml Ampicillin. For functional expression assays, the cells were washed and plated on M9 agar plates and incubated for 48 hrs at 37° C. […]
# The expression vector pEp-empty, an empty plasmid that retains the native ilvEp promoter and ATG start codon, was created by amplification of pAH29 plasmid with the pAH29-empty primer set, and included BamHI and SalI restriction sites for future fusion with the algal genes. Three forms of PiAHAS genes were used for this experiment: PiAHAS full open reading frame (ORF), truncated PiAHAS without the estimated chloroplast targeting peptide (from Serine91), and PimAHAS containing the point mutation (W605S). […] The plates were incubated for 48 hrs (FIG. 3) and bacterial growth was determined. […]
smiles,measurement,value
"COC(=O)c1ccccc1S(=O)(=O)NC(=O)Nc1nc(C)cc(C)n1 [SMM, sulfometuron methyl]",bacterial growth in presence of SMM,totally inhibited
